The values below come from US5597894A (The Louisiana State University Medical Center Foundation, priority 1995, dated 1997).

Where two headings read alike, the source gives them in different places. Positions of bridges follow the written chain, without caps; N, C: chain ends. Non-standard residues stand in square brackets, D forms with d. Residues, ends and D or L forms follow the SMILES beside them.

Data set [1] deals with T1, type 2 somatostatin receptors (SSTR2) (Homo sapiens, UniProt P30874).
T1 construct: IMR32 membrane fractions (100-150 μg) were incubated with 0.015 pM; host or cells: IMR32 human neuroblastoma cells (membrane fractions)
T1 sequence (P30874 whole entry): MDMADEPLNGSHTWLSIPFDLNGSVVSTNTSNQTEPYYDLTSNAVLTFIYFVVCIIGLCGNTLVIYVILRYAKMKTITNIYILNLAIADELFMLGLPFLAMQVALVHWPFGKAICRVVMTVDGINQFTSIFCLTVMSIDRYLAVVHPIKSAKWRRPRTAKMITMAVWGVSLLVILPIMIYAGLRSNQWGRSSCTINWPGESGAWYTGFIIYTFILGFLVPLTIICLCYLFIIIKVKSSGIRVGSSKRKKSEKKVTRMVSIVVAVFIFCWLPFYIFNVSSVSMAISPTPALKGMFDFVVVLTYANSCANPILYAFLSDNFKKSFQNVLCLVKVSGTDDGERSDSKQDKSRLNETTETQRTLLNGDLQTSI
The experiment in a line: Somatostatin receptor binding assay on IMR32 membranes. As for the experimental part: The IMR32 cells were maintained in minimal essential media (MEM) supplemented with 15% heat-inactivated fetal bovine serum, 100 U/ml penicillin, 100 μg/ml streptomycin and nonessential amino acids. Cultured cells were harvested in a buffer containing 20 mM HEPES, 2 mM MgCl2, 5 mM EDTA, 1 mM 2-mercaptoethanol, 150 mM NaCl, and 50 μg/ml phenylmethylsulfonylfluoride (PMSF), (pH 7.4) at a concentration of 1×10^6 cells/ml. Cell membranes were prepared according to the method of O'Dorisio, M. S. et al., Cell Growth and Differentiation, 5:1-8, 1994. Membrane fractions were prepared by differential centrifugation and the membranes resuspended in buffer and stored at -80° for receptor binding studies.
Binding assays were carried out according to the method of O'Dorisio et al., supra. […] The reaction was terminated by centrifugation at 11,000×G for 3 minutes. Supernatant fluid was aspirated and the radioactivity of bound ligand in the pellet quantified in a gamma counter.
Specific binding was calculated using the difference between total and non-specific (in the presence of 1 μM unlabeled ligand) binding. Equilibrium dissociation constants (KD) and the maximal number of binding sites (Bmax) were determined using seven concentrations of unlabeled peptide in a competitive binding curve and calculated using a computerized nonlinear least squares fit to the mass-law equation of Munson and Rodbard, Munson, P. J. et al., Anal. Biochem., 107:220-239, 1980, as modified by McPhearson, G. A., J. of Pharm. Meth., 14:213-228, 1985.

The test system of data set [2] is rat pituitary cells, which express SSTR2. Nature of the data set: Inhibition of growth hormone (GH) release from acutely dispersed rat pituitary cells. It is filed as cell-based. Particulars: in the presence of 1 nM GRF(1-29)NH2, 3 h at 37° C., number in brackets = samples tested. From the text:
Pituitaries from adult Charles River CD male rats (Wilmington, Mass.) housed under controlled conditions (lights on from 0500-1900 hrs), were dispersed and cultured using aseptic technique as previously described with modifications (Hoefer et al., Mol. Cell Endocrinol., 35:229, (1984); Ben-Jonathan et al., i Methods Enzymol., 103:249, (1983); and Heiman et al., Endocrinology, 116:410, (1985).
Briefly, pituitaries were removed from decapitated rats, sectioned, and then placed in a siliconized, liquid scintillation vial containing 2 ml 0.2% trypsin (Worthington Biochemicals, Freehold, N.J.) in sterile-filtered Krebs-Ringer bicarbonate buffer supplemented with 1% bovine serum albumin, 14 mM glucose, modified Eagle medium (MEM) vitamin solution and MEM amino acids (Gibco Laboratories, Grand Island, N.Y.) (KRBGA). All glassware was siliconized as described by Sayers et al., Endocrinology, 88:1063, (1971). The pituitary fragments were incubated in a water bath for 35 min at 37° C. with agitation. The vial contents were then poured into a scintillation vial containing 2 ml 0.1% DNase (Sigma Chemical Co., St. Louis, Mo.) in KRBGA and incubated for 2 min at 37° C. with agitation. After incubation the tissue was decanted into a 15 ml centrifuge tube and allowed to settle. The medium was discarded, and the pituitary sections were washed 3 times with 1 ml fresh KRBGA. The cells were dispersed in 2 ml 0.05% LBI (lima bean trypsin inhibitor, Worthington Biochemicals) by gently drawing the fragments into and expelling them out of a siliconized, fire-polished Pasteur pipette. Dispersed cells were filtered through a 630 μm diameter Nylon mesh (Tetko, Elmsford, N.Y.) into a fresh 15 ml centrifuge tube. An additional 2 ml of 0.05% LBI solution was used to rinse the first tube and was transferred to the second tube with filtering.
The dispersed cells were further diluted with approximately 15 ml sterile-filtered Dulbecco's modified Eagle medium (GIBCO), supplemented with 2.5% fetal calf serum (GIBCO), 3% horse serum (GIBCO), 10% fresh rat serum (stored on ice for no longer than 1 h) from the pituitary donors, 1% MEM non-essential amino acids (GIBCO), gentamycin ([…]; Sigma) and nystatin (10,000 U/ml; GIBCO). The cells were poured into a 50 ml round-bottomed glass extraction flask with a large diameter opening, counted with a hemacytometer (approximately 2,000,000 cells per pituitary), and randomly plated at a density of 200,000 cells per well (Co-star cluster 24; Rochester Scientific Co., Rochester, N.Y.). The plated cells were maintained in Dulbecco's medium in a humidified atmosphere of 95% air and 5% CO2 at 37° C. for 4 days to 5 days.
In preparation for a hormone challenge, the cells were washed 3 times with medium 199 (GIBCO) to remove old medium and floating cells. […] After 3 h at 37° C. in an air/carbon dioxide atmosphere (95/5%), the medium was removed and stored at -20 ° C. until assayed for hormone content. IC50 's (a concentration that provides half-maximal inhibition of GH release) were calculated using the computer program SigmaPlot (Jandel Scientific, San Rafael, Calif.).

Data set [3] is described as follows: Stability of 131I-labeled peptides stored in saline. It is filed as physicochemical. As to conditions: one week after labeling. As for the experimental part:
All specimen activity (μCi) was measured in a dose calibrator at least 30 minutes prior to intravenous injection. Radiolabeled peptide was injected through a peripheral arm vein in a free-flowing intravenous line. One week after labeling, only 30% of the ^131 I-labeled multi-tyrosinated peptides WOC-3A and WOC-3B compounds stored in saline had degraded.

The subject of data set [4] is bronchioloalveolar carcinoma of the lung (somatostatin receptor-expressing tumors). The experiment in a line: Biodistribution and dosimetry of 131I WOC-3A (1.6 mCi i.v.) in a human patient. It is filed as in vivo. Particulars: extrapolated for a dose of 1,500 mCi. As for the experimental part: A batch of ^131 I WOC-3A (1.6 mCi) was made (Iso-Tex Corporation, Friendswood, TX) and its sterility and pyrogenicity tested at Iso-Tex. Radiolabeled WOC-3A was injected intravenously and the pharmacokinetics and biodistribution of the radiolabeled compound were calculated. The tumor/normal tissue ratio of distribution of radiolabeled WOC-3A was approximately 3:1 to 6:1.
Following injection of 1.6 mCi of ^131 I WOC-3A, the patient underwent three days of nuclear medicine scanning using a 3-headed SPECT camera as well as an ADAC camera. In addition, whole body radiation counts were obtained to calculate whole-body loss of radioisotope over the three day period. […] Bone marrow would receive in excess of 450 rads (a dose requiring bone marrow transplantation in 50% of patients). Thus, in preparation for bone marrow transplantation, the patient underwent bone marrow harvest to provide cells for reinfusion after WOC-3 therapy and sufficient clearance of the radiolabeled analog from the patient's circulation.

The test system of data set [5] is bronchioloalveolar carcinoma of the lung. Nature of the data set: Subcutaneous octreotide acetate therapy in a human patient. Particulars: 2 mg/day subcutaneous. The text has this:
The patient is a person diagnosed with bronchioloalveolar carcinoma of the lung approximately four years ago. […] underwent a right upperlobectomy and intensive chemotherapy with multiple agents.

Where [6] appears, read: IMR32 membranes, competitive binding, 17° C., 30 minutes.

Take `CC(C)[C@@H]1NC(=O)[C@H](CCCCN)NC(=O)[C@@H](Cc2c[nH]c3ccccc23)NC(=O)[C@H](Cc2ccc(O)cc2)NC(=O)[C@@H](NC(=O)[C@H](N)Cc2ccc3ccccc3c2)CSSC[C@@H](C(=O)N[C@H](C(N)=O)[C@@H](C)O)NC1=O` [LANREOTIDE ®, Dβ-Nal-Cys-Tyr-D-Trp-Lys-Val-Cys-Thr(NH2), reference compound]: the Kd (as a rule, the equilibrium constant for the complex coming apart) in data set [1] turned out to be 1.05 ± 0.51 nM. For the same molecule, in data set [2], the IC50 (usually the concentration that inhibits the measured activity by half) is 0.4 ± 0.1 nM.

In the case of `C[C@@H](O)[C@H](NC(=O)[C@@H]1CSSC[C@H](NC(=O)[C@@H](Cc2ccccc2)NC(=O)[C@H](CCCCNC(=O)[C@H](CCCCNC(=O)[C@H](CCCCNC(=O)[C@H](N)Cc2ccc(O)cc2)NC(=O)[C@H](N)Cc2ccc(O)cc2)NC(=O)[C@H](CCCCNC(=O)[C@H](N)Cc2ccc(O)cc2)NC(=O)[C@H](N)Cc2ccc(O)cc2)NC(=O)[C@H](CCCCNC(=O)[C@H](CCCCNC(=O)[C@H](N)Cc2ccc(O)cc2)NC(=O)[C@H](N)Cc2ccc(O)cc2)NC(=O)[C@H](CCCCNC(=O)[C@H](N)Cc2ccc(O)cc2)NC(=O)[C@H](N)Cc2ccc(O)cc2)C(=O)N[C@@H](Cc2ccccc2)C(=O)N[C@H](Cc2c[nH]c3ccccc23)C(=O)N[C@@H](CCCCN)C(=O)N[C@@H]([C@@H](C)O)C(=O)N1)C(N)=O` [WOC-8, cyclic[(D-tyrosine)8-(lysine)4-(lysine)2-lysine-cysteine-phenylalanine-D-tryptophan-lysine-threonine-cysteine-threonine]], the IC50 in data set [2] stood at 2.46 ± 0.69 nM.

With `C[C@@H](O)[C@H](NC(=O)[C@@H]1CSSC[C@H](NC(=O)[C@@H](Cc2ccc(O)cc2)NC(=O)[C@@H](N)Cc2ccc(O)cc2)C(=O)N[C@@H](Cc2ccccc2)C(=O)N[C@H](Cc2c[nH]c3ccccc23)C(=O)N[C@@H](CCCCN)C(=O)N[C@@H]([C@@H](C)O)C(=O)N1)C(N)=O` [WOC-2B, cyclic-(tyrosine-D-tyrosine-cysteine-phenylalanine-D-tryptophan-lysine-thr eonine-cysteine-threonine-NH2)] (H-Y[dY]CF[dW]KTCT-NH2; disulfide 3-8), the dissociation constant (Kd) in data set [1] (setting [6]) stood at 1.2 nM.

Consider `CC(C)[C@@H]1NC(=O)[C@H](CCCCN)NC(=O)[C@@H](Cc2c[nH]c3ccccc23)NC(=O)[C@H](Cc2ccc(O)cc2)NC(=O)[C@@H](NC(=O)[C@@H](Cc2ccc(O)cc2)NC(=O)[C@H](C)NC(=O)[C@@H](N)Cc2ccc(O)cc2)CSSC[C@@H](C(=O)N[C@H](C(N)=O)[C@@H](C)O)NC1=O` [WOC-3A, cyclic(tyrosine-alanine-D-tyrosine-cysteine-tyrosine-D-tryptophan-lysine-v aline-cysteine-threonine)] (H-YA[dY]CY[dW]KVCT-NH2; disulfide 4-9), for which the “Displacement of bound radioactivity by unlabeled ligand” value in data set [1] (10,000-fold excess of unlabeled WOC-3A or native somatostatin) was “no radioactivity was displaced”. The “Total binding of radiolabeled analog to IMR-32 membranes” value in data set [1] (radiolabeled analog) is on record as “high levels of total binding”. The IC50 in data set [2] was 0.96 ± 0.01 nM. Also, the “Fraction of labeled peptide degraded” value in data set [3] is 30%. In addition, the “Radiation dose to bone marrow” value in data set [4] is reported as greater than 450 rads.

For the molecule `C[C@@H](O)[C@@H]1NC(=O)[C@H](CCCCN)NC(=O)[C@@H](Cc2c[nH]c3ccccc23)NC(=O)[C@H](Cc2ccccc2)NC(=O)[C@@H](NC(=O)[C@H](N)Cc2ccccc2)CSSC[C@@H](C(=O)N[C@H](CO)[C@@H](C)O)NC1=O` [octreotide acetate, D-Phe-Cys-Phe-D-Trp-Lys-Thr-Cys-Thr(ol)], the Tolerability of therapy entry in data set [5] is reported as “tolerated this therapy well”. Also, the “Decrease in tumor volume” value in data set [5] (initial response, tumors later progressed) is on record as 25%.

For the molecule `C[C@H](N)C(=O)NCC(=O)N[C@H]1CSSC[C@@H](C(=O)O)NC(=O)[C@H](CO)NC(=O)[C@H]([C@@H](C)O)NC(=O)[C@H](Cc2ccccc2)NC(=O)[C@H]([C@@H](C)O)NC(=O)[C@H](CCCCN)NC(=O)[C@H](Cc2c[nH]c3ccccc23)NC(=O)[C@H](Cc2ccccc2)NC(=O)[C@H](Cc2ccccc2)NC(=O)[C@H](CC(N)=O)NC(=O)[C@H](CCCCN)NC1=O` [Somatostatin, reference compound], the half-inhibitory concentration (IC50) in data set [2] was 0.46 ± 0.04 nM.

On to `C[C@@H](O)[C@H](NC(=O)[C@@H]1CSSC[C@H](NC(=O)[C@@H](Cc2ccc(O)cc2)NC(=O)[C@H](Cc2ccc(O)cc2)NC(=O)[C@H](Cc2ccc(O)cc2)NC(=O)[C@H](N)Cc2ccc(O)cc2)C(=O)N[C@@H](Cc2ccccc2)C(=O)N[C@H](Cc2c[nH]c3ccccc23)C(=O)N[C@@H](CCCCN)C(=O)N[C@@H]([C@@H](C)O)C(=O)N1)C(N)=O` [WOC-4, cyclic(D-tyrosine-tyrosine-tyrosine-D-tyrosine-cysteine-phenylalanine-D-tr yptophan-lysine-threonine-cysteine-threonine)] (H-[dY]YY[dY]CF[dW]KTCT-NH2; disulfide 5-10), for which binding in data set [1] (setting [6]) was put at a Kd of 1 nM. That is a single-digit nanomolar value.

Molecule `CC(C)[C@@H]1NC(=O)[C@H](CCCCN)NC(=O)[C@@H](Cc2c[nH]c3ccccc23)NC(=O)[C@H](Cc2ccc(O)cc2)NC(=O)[C@@H](NC(=O)[C@H](N)Cc2ccc(O)cc2)CSSC[C@@H](C(=O)N[C@H](C(N)=O)[C@@H](C)O)NC1=O` [WOC-2A, cyclic-(D-tyrosine-cysteine-tyrosine-D-tryptophan-lysine-valine-cysteine-t hreonine-NH2)] returned a dissociation constant (Kd) in data set [1] (setting [6]) of 5.73 ± 0.22 nM. For the same molecule, the IC50 in data set [2] was 4.84 ± 0.58 nM.

As to `CC(C)[C@@H]1NC(=O)[C@H](CCCCN)NC(=O)[C@@H](Cc2c[nH]c3ccccc23)NC(=O)[C@H](Cc2ccc(O)cc2)NC(=O)[C@@H](NC(=O)[C@@H](Cc2ccc(O)cc2)NC(=O)[C@@H](N)Cc2ccc(O)cc2)CSSC[C@@H](C(=O)N[C@H](C(N)=O)[C@@H](C)O)NC1=O` [WOC-3B, cyclic(tyrosine-D-tyrosine-cysteine-tyrosine-D-tryptophan-lysine-valine-cy steine-threonine)] (H-Y[dY]CY[dW]KVCT-NH2; disulfide 3-8), in data set [2], the half-inhibitory concentration (IC50) came to 0.66 ± 0.06 nM. The “Fraction of labeled peptide degraded” value in data set [3] came out at 30%.
